Source: patent US11358961B2, “Anti-HCMV compositions and methods” (Evrys Bio, LLC, priority 2014, dated 2022)

These molecules were tested on human cytomegalovirus (HCMV) (assay: Antiviral activity against HCMV in vitro (virus yield / replication assay, IE protein readout)). Conditions: Human betaherpesvirus 5, 96 h, read-out: HCMV IC50.
Assay type: cell-based
Experimental: Assessing Antiviral Activity Against Human Cytomegalovirus (HCMV)
To assess their antiviral activity, some compounds were tested against human cytomegalovirus (HCMV) in vitro. Human MRCS cells were grown in Dulbecco's Modified Eagle Medium (DMEM) supplemented with 10% fetal bovine serum (FBS) and infected with an HCMV variant expressing GFP tagged pUL99 (the product of late viral UL99 gene) at a multiplicity of 1 infectious unit (IU) per cell. One hour later, medium of the cells was replaced with fresh medium containing the indicated compounds at 50, 25, 12.5, 6.25, 3.13, 1.56, 0.78, 0.39 μM or the carrier in which the compounds are dissolved (DMSO). Final concentration of DMSO was 0.5% in each treatment. Virus yield in the culture supernatant was determined at 96 hours after infection by infecting fresh MRCS cells and assaying viral IE1 protein expression. Results were plotted using either Prism Software or CDD Vault (CDD Vault was developed by Collaborative Drug Discovery, Inc., 1633 Bayshore Hwy, Suite 342, Burlingame, Calif. 94010) in order to calculate IC50s.
Alternatively, antiviral efficacy of some compounds was assessed by inhibition of HCMV replication during in vitro replication assays. Briefly, confluent monolayers of MRCS fibroblasts in a 96 well plate format (˜1.0×10^4 cells/well) were infected with an AD169 strain of HCMV for one hour. After the initial incubation hour, virus containing media was removed and 100 ul of media with sequential dilutions of FORGE compounds added to each well. The concentrations of the FORGE compounds were 50 μM, 25 μM, 12.5 μM, 6.25 μM, 3.125 μM, 1.56 μM, and 0.78125 μM as well as a vehicle control (0.5% DMSO). The concentration of DMSO was constant between all conditions. Assays were performed in duplicate. Infected plates were returned to the incubator and the viral infection was allowed to progress for four days. On the fourth day, 50 μL of cell free supernatant was collected from each well and used to infect a new 96 well plate seeded with a confluent monolayer of MRCS fibroblasts along with 50 μL of media to bring the total volume to 100 μL. The next day the media was removed and the infected monolayer was fixed with cold methanol, and Immediate Early proteins were detected by immunofluorescence assays to quantify the number of cells that were infected with HCMV. IE gene expression was quantified within five random fields within each well and corresponding numbers were utilized to determine viral replication. Results from each well were normalized to the vehicle control well so as to allow a percent reduction from no drug treatment to be calculated. Results were plotted using either Prism Software or CDD Vault in order to calculate IC50s.

Q: Which IC50 does the source give for N#Cc1ccc2c(c1)CN(c1ncc(Cc3cccc(-n4cccn4)c3)s1)CC2 [Example 36] here?
A: 3.3 µM

Q: c1cc(Cc2cnc(N3CCOCC3)s2)cc(-n2cccn2)c1 [Example 35] was tested. Which IC50 did it give?
A: > 27 µM

Q: For CC(c1ccc(-n2cccn2)cc1)c1cnc(N2CCc3ccccc3C2)s1 (centres unmarked) [Example 13], which IC50 is on record?
A: 3.6 µM

Q: Which IC50 does the source give for CC(c1cccnc1)c1cnc(N2CCc3ccccc3C2)s1 (centres unmarked) [Example 8] here?
A: 16.4 µM

Q: Which IC50 does the source give for C=C(c1cccc(-n2cccn2)c1)c1cnc(N2CCc3ccccc3C2)s1 [Example 19] here?
A: 7 µM

Q: How did the IC50 turn out when C=C(c1ccc(-n2cccn2)cc1)c1cnc(N2CCc3ccccc3C2)s1 [Example 14] was run?
A: 28.7 µM

Q: Which IC50 does the source give for c1ccc2c(c1)CCCN2c1ncc(Cc2ccc(-n3cccn3)cc2)s1 [Example 23] here?
A: > 50 µM

Q: With c1ccc(CNc2ncc(Cc3cccc(-n4cccn4)c3)s2)cc1 [Example 29] as the molecule, how does the IC50 read?
A: > 50 µM

Q: How did the IC50 turn out when N#Cc1ccc2c(c1)CN(c1ncc(Cc3ccc(-n4cccn4)cc3)s1)CC2 [Example 28] was run?
A: 9.7 µM

Q: With CC(Nc1ncc(Cc2cccc(-n3cccn3)c2)s1)c1ccccc1 (centres unmarked) [Example 34] as the molecule, how does the IC50 read?
A: > 50 µM

Q: Which IC50 does the source give for CC(C)OC1CN(c2ncc(Cc3cccc(-n4cccn4)c3)s2)C1 [Example 30] here?
A: 12 µM

Q: Which IC50 does the source give for CC(O)(c1ccc2nccnc2c1)c1cnc(-c2cnc(Cl)s2)s1 (centres unmarked) [Example 1] here?
A: 21.4 µM

Q: How did the IC50 turn out when CC(c1ccc(N2CCCCC2)cc1)c1cnc(N2CCc3ccccc3C2)s1 (centres unmarked) [Example 15] was run?
A: > 25 µM

Q: CC(c1ccc2nccnc2c1)c1cnc(N2CCC(c3ccccc3)C2)s1 (centres unmarked) [Example 10] was tested. Which IC50 did it give?
A: > 25 µM

Q: c1cnn(-c2ccc(Cc3cnc(N4CCC5OCCCC5C4)s3)cc2)c1 (centres unmarked) [Example 25] was tested. Which IC50 did it give?
A: 11 µM

Q: Which IC50 does the source give for O=C(c1ccc2nccnc2c1)c1cnc(N2CCc3ccccc3C2)s1 [Example 5] here?
A: > 50 µM

Q: For CC(c1ccc(-c2ncccn2)cc1)c1cnc(N2CCc3ccccc3C2)s1 (centres unmarked) [Example 17], which IC50 is on record?
A: 4.2 µM

Q: CC(c1ccc2nccnc2c1)c1cnc(N2CCC(Cc3ccccc3)CC2)s1 (centres unmarked) [Example 11] was tested. Which IC50 did it give?
A: > 25 µM

Q: Which IC50 does the source give for OC(c1ccc2nccnc2c1)c1cnc(N2CCc3ccccc3C2)s1 (centres unmarked) [Example 6] here?
A: 5.1 µM

Q: CC(C)c1ccc(CNc2ncc(Cc3cccc(-n4cccn4)c3)s2)cc1 [Example 32] was tested. Which IC50 did it give?
A: > 50 µM

Q: With c1cc(Cc2cnc(N3CCCc4ccccc43)s2)cc(-n2cccn2)c1 [Example 31] as the molecule, how does the IC50 read?
A: > 50 µM

Q: How did the IC50 turn out when CC(c1cccc(-n2ccnc2)c1)c1cnc(N2CCc3ccc(C#N)cc3C2)s1 (centres unmarked) [Example SBX080] was run?
A: 4.9 µM

Q: For CC(Nc1ncc(Cc2ccc(-n3cccn3)cc2)s1)c1ccccc1 (centres unmarked) [Example 26], which IC50 is on record?
A: > 50 µM

Q: CC(c1cccc(-n2cccn2)c1)c1cnc(N2CCc3ccccc3C2)s1 (centres unmarked) [Example 18] was tested. Which IC50 did it give?
A: 1.6 µM

Q: Which IC50 does the source give for c1cc(Cc2cnc(N3CCc4ccccc4C3)s2)cc(-n2cccn2)c1 [Example 20] here?
A: 8.9 µM

Q: With CC(c1cnc(N2CCc3ccccc3C2)s1)c1c[nH]c2ccccc12 (centres unmarked) [Example 9] as the molecule, how does the IC50 read?
A: 12.7 µM

Q: With c1cnn(-c2ccc(Cc3cnc(N4CCOCC4)s3)cc2)c1 [Example 27] as the molecule, how does the IC50 read?
A: 10.3 µM

Q: For CC(C)OC1CN(c2ncc(Cc3ccc(-n4cccn4)cc3)s2)C1 [Example 22], which IC50 is on record?
A: > 50 µM

Q: With c1ccc2c(c1)CCN(c1ncc(Cc3ccc4nccnc4c3)s1)C2 [Example 4] as the molecule, how does the IC50 read?
A: 5.6 µM

Q: How did the IC50 turn out when c1ccc2c(c1)CCN(c1ncc(Cc3ccc(-n4cccn4)cc3)s1)C2 [Example 16] was run?
A: 12.5 µM

Q: CC(c1cccc(-n2cccn2)c1)c1cnc(N2CCc3ccc(Br)cc3C2)s1 (centres unmarked) [Example SBX084] was tested. Which IC50 did it give?
A: 3.8 µM

Q: How did the IC50 turn out when CC(c1ccccc1)c1cnc(N2CCc3ccccc3C2)s1 (centres unmarked) [Example 7] was run?
A: > 50 µM

Q: CC(C)c1ccc(CNc2ncc(Cc3ccc(-n4cccn4)cc3)s2)cc1 [Example 24] was tested. Which IC50 did it give?
A: > 50 µM

Q: With c1ccc(CNc2ncc(Cc3ccc(-n4cccn4)cc3)s2)cc1 [Example 21] as the molecule, how does the IC50 read?
A: > 50 µM

Q: CC(O)(c1ccc2nccnc2c1)c1cnc(N2CCc3ccccc3C2)s1 (centres unmarked) [Example 2] was tested. Which IC50 did it give?
A: 24 µM

Q: How did the IC50 turn out when CC(c1cccc(-n2cccn2)c1)c1cnc(N2CCc3ccc(C#N)cc3C2)s1 (centres unmarked) [Example SBX082] was run?
A: 7.3 µM

Q: CC(c1cccc(-n2cccn2)c1)c1cnc(N2CCc3ccc(C(N)=O)cc3C2)s1 (centres unmarked) [Example SBX088] was tested. Which IC50 did it give?
A: 1.6 µM

Q: With C=C(c1ccc2nccnc2c1)c1cnc(NCc2ccccc2)s1 [Example 12] as the molecule, how does the IC50 read?
A: > 50 µM

Q: With c1cc(Cc2cnc(N3CCC4OCCCC4C3)s2)cc(-n2cccn2)c1 (centres unmarked) [Example 33] as the molecule, how does the IC50 read?
A: 11.5 µM

Q: How did the IC50 turn out when COC(c1cccc(-n2cccn2)c1)c1cnc(N2CCc3ccc(C(N)=O)cc3C2)s1 (centres unmarked) [Example SBX087] was run?
A: 1.4 µM

Q: How did the IC50 turn out when C=C(c1ccc2nccnc2c1)c1cnc(N2CCc3ccccc3C2)s1 [Example 3] was run?
A: > 50 µM
